From patent US20040156869A1, “2-substituted quinazolin-4-ylamine analogues” (Neurogen Corporation, priority 2002, published 2004)

target: human capsaicin receptor (VR1) (Homo sapiens, UniProt Q8NER1); experiment: Capsaicin receptor binding assay ([3H]RTX competition, VR1-transfected HEK293 membranes); settings: not given
Sequence (Q8NER1 whole entry): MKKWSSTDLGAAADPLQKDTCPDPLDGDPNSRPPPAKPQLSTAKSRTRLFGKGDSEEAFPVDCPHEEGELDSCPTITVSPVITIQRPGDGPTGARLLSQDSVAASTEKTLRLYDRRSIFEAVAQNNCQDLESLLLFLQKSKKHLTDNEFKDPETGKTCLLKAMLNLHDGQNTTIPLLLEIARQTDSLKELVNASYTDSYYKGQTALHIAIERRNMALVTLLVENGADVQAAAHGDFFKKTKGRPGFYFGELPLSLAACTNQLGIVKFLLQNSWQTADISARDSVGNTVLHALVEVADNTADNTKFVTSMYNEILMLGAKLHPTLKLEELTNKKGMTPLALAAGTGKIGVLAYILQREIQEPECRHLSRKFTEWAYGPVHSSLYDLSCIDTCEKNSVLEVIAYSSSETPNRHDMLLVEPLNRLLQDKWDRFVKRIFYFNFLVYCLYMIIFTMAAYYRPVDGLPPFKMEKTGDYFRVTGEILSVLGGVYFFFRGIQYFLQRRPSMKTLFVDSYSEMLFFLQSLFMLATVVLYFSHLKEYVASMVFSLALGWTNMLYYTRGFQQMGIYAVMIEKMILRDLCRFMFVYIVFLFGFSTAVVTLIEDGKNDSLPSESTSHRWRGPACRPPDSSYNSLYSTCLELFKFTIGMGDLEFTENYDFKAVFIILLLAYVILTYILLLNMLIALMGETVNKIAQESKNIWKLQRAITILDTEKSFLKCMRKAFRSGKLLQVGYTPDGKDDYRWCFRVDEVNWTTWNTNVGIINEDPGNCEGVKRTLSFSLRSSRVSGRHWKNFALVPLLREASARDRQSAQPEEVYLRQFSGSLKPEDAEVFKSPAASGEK

Ki, < 1000 nM:
OCc1nc(Nc2ccc(C(F)(F)F)cc2)c2ncc(-c3ncccc3C(F)(F)F)cc2n1 [Compound 121, [4-(4-Trifluoromethyl-phenylamino)-7-(3-trifluoromethyl-pyridin-2-yl)-pyrido[3,2-d]pyrimidin-2-yl]-methanol]
CCN(CC)Cc1nc(Nc2ccc(C(F)(F)F)nc2)c2ccc(-c3ncccc3C(F)(F)F)cc2n1 [Compound 368, [2-Diethylaminomethyl-7-(3-trifluoromethyl-pyridin-2-yl)-quinazolin-4-yl]-(6-trifluoromethyl-pyridin-3-yl)-amine]
COCc1nc(Nc2ccc(C(C)(C)C#N)cc2)c2ccc(-c3nccnc3Cl)nc2n1 [Compound 238, 2-{4-[7-(3-Chloro-pyrazin-2-yl)-2-methoxymethyl-pyrido[2,3-d]pyrimidin-4-ylamino]-phenyl}-2-methyl-propionitrile]
Cc1cccnc1-c1ccc2c(Nc3ccc(C(F)(F)F)cc3)nc(C3CNC3)nc2n1 [Compound 735, [2-Azetidin-3-yl-7-(3-methyl-pyridin-2-yl)-pyrido[2,3-d]pyrimidin-4-yl]-(4-trifluoromethyl-phenyl)-amine]
CC(C)COCc1cc(Nc2ccc(C(F)(F)F)cn2)c2ccc(-c3ncccc3C(F)(F)F)nc2n1 [Compound 314, [2-Isobutoxymethyl-7-(3-trifluoromethyl-pyridin-2-yl)-[1,8]naphthyridin-4-yl]-(5-trifluoromethyl-pyridin-2-yl)-amine]
OCCC1CCN(CCCc2nc(Nc3ccc(C(F)(F)F)cc3)c3ccc(-c4ncccc4C(F)(F)F)cc3n2)CC1 [Compound 568, 2-(1-{3-[4-(4-Trifluoromethyl-phenylamino)-7-(3-trifluoromethyl-pyridin-2-yl)-quinazolin-2-yl]-propyl}-piperidin-4-yl)-ethanol]
Cc1cccnc1-c1cnc2c(Nc3ccc(C(F)(F)F)cc3)nc(CN3C[C@@H](C)O[C@@H](C)C3)nc2c1 [Compound 603, [2-(2,6-Dimethyl-morpholin-4-ylmethyl)-7-(3-methyl-pyridin-2-yl)-pyrido[3,2-d]pyrimidin-4-yl]-(4-trifluoromethyl-phenyl)-amine (cis)]
CCCCCN(CCCCC)Cc1nc(Nc2ccc(C(F)(F)F)cc2)c2ccc(-c3ncccc3C(F)(F)F)cc2n1 [Compound 345, [2-Dipentylaminomethyl-7-(3-trifluoromethyl-pyridin-2-yl)-quinazolin-4-yl]-(4-trifluoromethyl-phenyl)-amine]
CCC(C)c1ccc(Nc2nc(COC)nc3nc(-c4ncccc4C)ccc23)cc1 (centres unmarked) [Compound 97, (4-sec-Butyl-phenyl)-[2-methoxymethyl-7-(3-methyl-pyridin-2-yl)-pyrido[2,3-d]pyrimidin-4-yl]-amine]
FC(F)(F)c1ccc(Nc2nc(CN3C=NCCC3)nc3cc(-c4ncccc4C(F)(F)F)ccc23)cc1 [Compound 671, [2-(5,6-Dihydro-4H-pyrimidin-1-ylmethyl)-7-(3-trifluoromethyl-pyridin-2-yl)-quinazolin-4-yl]-(4-trifluoromethyl-phenyl)-amine]
CCCCCN(CCCCC)Cc1nc(Nc2ccc(C(F)(F)F)nc2)c2ccc(-c3ncccc3C(F)(F)F)cc2n1 [Compound 385, [2-Dipentylaminomethyl-7-(3-trifluoromethyl-pyridin-2-yl)-quinazolin-4-yl]-(6-trifluoromethyl-pyridin-3-yl)-amine]
CC(C)N(C)Cc1nc(Nc2ccc(C(F)(F)F)cc2)c2ccc(-c3ncccc3C(F)(F)F)cc2n1 [Compound 338]
CCCCOc1ccc(Nc2nc(COCC(C)C)nc3nc(-c4ncccc4Cl)ccc23)cc1 [Compound 278, (4-Butoxy-phenyl)-[7-(3-chloro-pyridin-2-yl)-2-isobutoxymethyl-pyrido[2,3-d]pyrimidin-4-yl]-amine]
COCc1cc(Nc2ccc(C(F)(F)F)cn2)c2ccc(-c3ncccc3C(F)(F)F)nc2n1 [Compound 307, [2-Methoxymethyl-7-(3-trifluoromethyl-pyridin-2-yl)-[1,8]naphthyridin-4-yl]-(5-trifluoromethyl-pyridin-2-yl)-amine]
FC(F)(F)c1ccc(Nc2nc(COC3CCOCC3)nc3cc(-c4ncccc4C(F)(F)F)ccc23)cc1 [Compound 86, [2-(Tetrahydro-pyran-4-yloxymethyl)-7-(3-trifluoromethyl-pyridin-2-yl)-quinazolin-4-yl]-(4-trifluoromethyl-phenyl)-amine]
COCCOCc1nc(Nc2ccc(C(C)(C)C#N)cc2)c2ccc(-c3ncccc3Cl)nc2n1 [Compound 83, 2-{4-[7-(3-Chloro-pyridin-2-yl)-2-(2-methoxy-ethoxymethyl)-pyrido[2,3-d]pyrimidin-4-ylamino]-phenyl}-2-methyl-propionitrile]
CC(c1ccccc1)N(C)Cc1nc(Nc2ccc(C(F)(F)F)nc2)c2ccc(-c3ncccc3C(F)(F)F)cc2n1 (centres unmarked) [Compound 348, [2-{[Methyl-(1-phenyl-ethyl)-amino]-methyl}-7-(3-trifluoromethyl-pyridin-2-yl)-quinazolin-4-yl]-(6-trifluoromethyl-pyridin-3-yl)-amine]
CC(C)COCc1nc(Nc2ccc(C(C)C(F)(F)F)cc2)c2ccc(-c3ncccc3Cl)nc2n1 (centres unmarked) [Compound 233, [7-(3-Chloro-pyridin-2-yl)-2-isobutoxymethyl-pyrido[2,3-d]pyrimidin-4-yl]-[4-(2,2,2-trifluoro-1-methyl-ethyl)-phenyl]-amine]
CC(C)N1CCN(Cc2nc(Nc3ccc(C(F)(F)F)cc3)c3ccc(-c4ncccc4C(F)(F)F)cc3n2)CC1 [Compound 512, [2-(4-Isopropyl-piperazin-1-ylmethyl)-7-(3-trifluoromethyl-pyridin-2-yl)-quinazolin-4-yl]-(4-trifluoromethyl-phenyl)-amine]
COc1ccc(Nc2nc(COCC(C)C)nc3nc(-c4ncccc4C(F)(F)F)ccc23)cc1C(F)(F)F [Compound 256, [2-Isobutoxymethyl-7-(3-trifluoromethyl-pyridin-2-yl)-pyrido[2,3-d]pyrimidin-4-yl]-(4-methoxy-3-trifluoromethyl-phenyl)-amine]
COCc1cc(Nc2ccc(Cl)c(F)c2)c2ccc(-c3ncccc3C(F)(F)F)nc2n1 [Compound 304, (4-Chloro-3-fluoro-phenyl)-[2-methoxymethyl-7-(3-trifluoromethyl-pyridin-2-yl)-[1,8]naphthyridin-4-yl]-amine]
CCC(C)c1ccc(Nc2nc(COCCOC)nc3nc(-c4ncccc4Cl)ccc23)cc1 (centres unmarked) [Compound 84, (4-sec-Butyl-phenyl)-[7-(3-chloro-pyridin-2-yl)-2-(2-methoxy-ethoxymethyl)-pyrido[2,3-d]pyrimidin-4-yl]-amine]
FC(F)(F)c1ccc(Nc2nc(CCN3CCc4ccccc4C3)nc3cc(-c4ncccc4C(F)(F)F)ccc23)cc1 [Compound 393, [2-[2-(3,4-Dihydro-1H-isoquinolin-2-yl)-ethyl]-7-(3-trifluoromethyl-pyridin-2-yl)-quinazolin-4-yl]-(4-trifluoromethyl-phenyl)-amine]
COCc1nc(Nc2ccc(F)c(F)c2)c2ccc(-c3ncccc3C(F)(F)F)nc2n1 [Compound 291, (3,4-Difluoro-phenyl)-[2-methoxymethyl-7-(3-trifluoromethyl-pyridin-2-yl)-pyrido[2,3-d]pyrimidin-4-yl]-amine]
O=C(CCc1nc(Nc2ccc(C(F)(F)F)cc2)c2ccc(-c3ncccc3C(F)(F)F)cc2n1)N1CCCC1 [Compound 478, 1-Pyrrolidin-1-yl-3-[4-(4-trifluoromethyl-phenylamino)-7-(3-trifluoromethyl-pyridin-2-yl)-quinazolin-2-yl]-propan-1-one]
CC1CCN(Cc2nc(Nc3ccc(C(F)(F)F)nc3)c3ccc(-c4ncccc4C(F)(F)F)cc3n2)CC(C)(C)C1 (centres unmarked) [Compound 363, (6-Trifluoromethyl-pyridin-3-yl)-[7-(3-trifluoromethyl-pyridin-2-yl)-2-(3,3,5-trimethyl-azepan-1-ylmethyl)-quinazolin-4-yl]-amine]
COCc1nc(Nc2ccc(C(C)(C)C)cc2)c2ncc(-c3ncccc3C(F)(F)F)cc2n1 [Compound 50, (4-tert-Butyl-phenyl)-[2-methoxymethyl-7-(3-trifluoromethyl-pyridin-2-yl)-pyrido[3,2-d]pyrimidin-4-yl]-amine]
CC(C)COCc1nc(Nc2ccc(CO)cc2)c2ccc(-c3ncccc3Cl)nc2n1 [Compound 277, {4-[7-(3-Chloro-pyridin-2-yl)-2-isobutoxymethyl-pyrido[2,3-d]pyrimidin-4-ylamino]-phenyl}-methanol]
COCc1nc(Nc2ccc(C(C)C)cc2)c2ccc(-c3ncccc3Cl)nc2n1 [Compound 60, [7-(3-Chloro-pyridin-2-yl)-2-methoxymethyl-pyrido[2,3-d]pyrimidin-4-yl]-(4-isopropyl-phenyl)-amine]
CN(Cc1nc(Nc2ccc(C(F)(F)F)nc2)c2ccc(-c3ncccc3C(F)(F)F)cc2n1)C1CCc2ccccc21 (centres unmarked) [Compound 349, [2-[(Indan-1-yl-methyl-amino)-methyl]-7-(3-trifluoromethyl-pyridin-2-yl)-quinazolin-4-yl]-(6-trifluoromethyl-pyridin-3-yl)-amine]
COCCOCc1nc(Nc2ccc(C(C)C)cc2)c2ccc(-c3ncccc3Cl)nc2n1 [Compound 77, [7-(3-Chloro-pyridin-2-yl)-2-(2-methoxy-ethoxymethyl)-pyrido[2,3-d]pyrimidin-4-yl]-(4-isopropyl-phenyl)-amine]

same assay, conditions: Table III; capsaicin receptor binding

Ki, < 1000 nM:
CC1CN(Cc2nc(Nc3ccc(C(C)(C)C)cc3)c3ncc(-c4ncccc4C(F)(F)F)cc3n2)CC(C)O1 (stereo not drawn) [Compound 583, (4-tert-Butyl-phenyl)-[2-(2,6-dimethyl-morpholin-4-ylmethyl)-7-(3-trifluoromethyl-pyridin-2-yl)-pyrido[3,2-d]pyrimidin-4-yl]-amine (cis)]
